ChEMBL document CHEMBL1201862, “PubChem BioAssay data set” (2004)
The source made the active and inactive calls.

Columns and labels:
[1] = Luminescence-based counterscreen assay for KLF5 inhibitors: dose response cell-based high throughput screening assay to identify cytotoxic compounds using the IEC-6 intestinal epithelial cell line. [Related pubchem assays: 1700 (Primary screen.), 1834 (Confirmation screen.), 1858 (Summary AID.), 1905 (Counterscreen.)]; type: functional
[2] = target: T1, Streptokinase A (Streptococcus pyogenes serotype M1, UniProt P10520); experiment: Absorbance Microorganism-Based Dose Response Follow up to Identify Inhibitors of Streptokinase Expression. [Related pubchem assays: 1677 (Project Summary), 1915, 1914, 1902 (Retest at Dose), 1900 (Counter Screen), 1662 (Primary HTS)]; type: functional, Streptococcus pyogenes M1 GAS
T1 sequence (P10520 whole entry): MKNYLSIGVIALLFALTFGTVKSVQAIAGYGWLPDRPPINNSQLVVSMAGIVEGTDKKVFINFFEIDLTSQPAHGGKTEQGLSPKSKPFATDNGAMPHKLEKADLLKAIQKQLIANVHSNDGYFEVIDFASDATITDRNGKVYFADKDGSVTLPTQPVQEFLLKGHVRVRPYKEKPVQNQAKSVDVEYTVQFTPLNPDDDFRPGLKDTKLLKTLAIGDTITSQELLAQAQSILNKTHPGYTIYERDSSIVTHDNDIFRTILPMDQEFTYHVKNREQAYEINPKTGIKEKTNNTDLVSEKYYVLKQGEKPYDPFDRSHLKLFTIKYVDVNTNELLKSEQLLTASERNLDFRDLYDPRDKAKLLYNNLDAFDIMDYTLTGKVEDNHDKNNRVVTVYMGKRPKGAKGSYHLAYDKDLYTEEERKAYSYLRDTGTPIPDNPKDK

[3] = tested on: Streptococcus; experiment: GAS bacterial viability reduction – luminescence, BacTiter-Glo, strain UMAA2166, counter-screen for streptokinase expression inhibitor project, dose response (AID 2477); type: functional, organism-based
[4] = target: Sphingosine 1-phosphate receptor 3 (Homo sapiens, UniProt Q99500); experiment: Dose response cell-based high throughput screening assay for antagonists of the Sphingosine 1-Phosphate Receptor 3 (S1P3). [Related pubchem assays: 1429, 485 ]; type: functional
[5] = target: 5-hydroxytryptamine receptor 1E (Homo sapiens, UniProt P28566); experiment: Counterscreen assay for S1P3 antagonists: Dose response cell-based high throughput screening assay to identify antagonists of the 5-Hydroxytryptamine Receptor Subtype 1E (5HT1E). [Related pubchem assays: 1429, 485 ]; type: functional
[6] = target: NS3 (Hepatitis C virus, UniProt A3EZJ3); experiment: PubChem AID 2173; design: species or system Hepacivirus hominis
[7] = target: Sphingosine 1-phosphate receptor 2 (Homo sapiens, UniProt O95136); experiment: Dose Response Cell Based Assay for Agonists of the S1P2 Receptor of Purchased Analogues. [Related pubchem assays: 729, 843, 854, 736 ]; type: functional
[8] = tested on: HeLa; experiment: Cytotoxicity counterscreen assay for transcriptional activators of heat shock protein 70 (Hsp70). [Related pubchem assays: 1203, 1252 ]; type: functional; details: Homo sapiens;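 also: cells exposed to compound for 16 hours before readout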
[9] = viability loss in A549 lung cancer cells – cell-based, cherry-picks, […], cytotoxicity control, dose response (AID 1053119); type: functional
[10] = reduction of Shn3 3'UTR-driven luciferase in osteoblasts – cell-based, Clone20 osteoblasts, firefly luciferase, cherry-picked, dose response (AID 624132); type: functional;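 also: firefly luciferase luminescence from reporter carrying the Shn3 3'UTR in osteoblasts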
[11] = loss of viability in HepG2 cells – cell-based, CellTiter-Glo, cherry-picked, cytotoxicity control for Shn3 inhibitor project, dose response (AID 624134); type: functional
[12] = target: T2, Microphthalmia-associated transcription factor (Homo sapiens, UniProt O75030); experiment: reducers of TRPM1 reporter luminescence, concentration series – cell-based, SK-MEL-5, cherry-picked, set 3, MITF inhibitor project, dose response (AID 493073); type: functional;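 also: SK-MEL-5 melanoma cells with luciferase driven by the MITF target TRPM1 promoter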
T2 sequence (O75030 whole entry): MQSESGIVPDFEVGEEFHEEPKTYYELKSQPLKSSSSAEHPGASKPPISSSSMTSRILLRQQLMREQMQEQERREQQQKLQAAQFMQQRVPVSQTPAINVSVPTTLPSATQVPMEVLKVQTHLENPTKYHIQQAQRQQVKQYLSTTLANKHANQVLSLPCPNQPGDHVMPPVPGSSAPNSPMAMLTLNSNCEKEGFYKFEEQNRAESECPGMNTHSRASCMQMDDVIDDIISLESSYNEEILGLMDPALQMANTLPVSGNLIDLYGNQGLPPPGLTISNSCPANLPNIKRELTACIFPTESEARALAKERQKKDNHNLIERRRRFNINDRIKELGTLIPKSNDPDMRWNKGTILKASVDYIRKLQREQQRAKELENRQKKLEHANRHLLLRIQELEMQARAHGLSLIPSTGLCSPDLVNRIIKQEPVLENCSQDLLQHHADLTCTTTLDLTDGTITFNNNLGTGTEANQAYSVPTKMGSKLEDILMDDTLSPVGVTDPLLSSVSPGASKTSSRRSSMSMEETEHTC

[13] = non-specific 3'UTR reporter inhibition in Clone20-Shn3RL – cell-based, Renilla luciferase, cherry-picked, counter-screen for Shn3 inhibitor project, dose response (AID 624133); type: functional

Chain of Sphingosine 1-phosphate receptor 2 (O95136 whole entry): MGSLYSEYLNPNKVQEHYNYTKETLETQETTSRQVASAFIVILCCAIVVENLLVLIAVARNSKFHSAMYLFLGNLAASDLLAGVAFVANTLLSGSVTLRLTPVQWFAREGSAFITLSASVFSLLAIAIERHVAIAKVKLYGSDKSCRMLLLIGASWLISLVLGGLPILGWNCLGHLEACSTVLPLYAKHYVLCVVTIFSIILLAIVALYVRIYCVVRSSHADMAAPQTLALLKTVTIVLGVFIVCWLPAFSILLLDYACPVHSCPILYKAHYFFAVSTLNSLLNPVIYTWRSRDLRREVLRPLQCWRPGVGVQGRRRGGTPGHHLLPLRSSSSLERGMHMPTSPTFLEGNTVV
Chain of NS3 (A3EZJ3 whole entry): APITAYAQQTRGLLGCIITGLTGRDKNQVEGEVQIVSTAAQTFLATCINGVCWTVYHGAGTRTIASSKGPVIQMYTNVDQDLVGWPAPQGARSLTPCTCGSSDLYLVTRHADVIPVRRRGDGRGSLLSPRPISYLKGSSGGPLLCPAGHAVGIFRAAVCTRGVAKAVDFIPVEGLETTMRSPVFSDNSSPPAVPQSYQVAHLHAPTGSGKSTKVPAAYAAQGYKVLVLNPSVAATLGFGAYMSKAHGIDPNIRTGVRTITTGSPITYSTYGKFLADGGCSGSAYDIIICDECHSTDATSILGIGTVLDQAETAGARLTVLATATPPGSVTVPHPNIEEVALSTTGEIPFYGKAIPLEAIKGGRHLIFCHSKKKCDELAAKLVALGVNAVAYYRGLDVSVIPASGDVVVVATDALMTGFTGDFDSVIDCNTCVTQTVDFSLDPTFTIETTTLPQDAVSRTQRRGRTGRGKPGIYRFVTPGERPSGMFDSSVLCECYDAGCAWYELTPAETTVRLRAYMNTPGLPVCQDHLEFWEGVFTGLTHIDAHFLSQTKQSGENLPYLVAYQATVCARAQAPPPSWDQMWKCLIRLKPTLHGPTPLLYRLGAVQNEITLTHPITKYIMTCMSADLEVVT
Chain of Sphingosine 1-phosphate receptor 3 (Q99500 whole entry): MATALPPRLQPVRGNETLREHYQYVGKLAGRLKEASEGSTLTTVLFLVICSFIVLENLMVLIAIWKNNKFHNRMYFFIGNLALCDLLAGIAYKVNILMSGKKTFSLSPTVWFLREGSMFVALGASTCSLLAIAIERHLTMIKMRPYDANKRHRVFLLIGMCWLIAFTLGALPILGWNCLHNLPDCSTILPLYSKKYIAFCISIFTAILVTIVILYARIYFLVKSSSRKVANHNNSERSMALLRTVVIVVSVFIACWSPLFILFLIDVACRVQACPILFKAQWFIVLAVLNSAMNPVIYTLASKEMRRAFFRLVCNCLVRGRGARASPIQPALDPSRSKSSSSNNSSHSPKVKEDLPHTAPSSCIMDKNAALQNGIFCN
Chain of 5-hydroxytryptamine receptor 1E (P28566 whole entry): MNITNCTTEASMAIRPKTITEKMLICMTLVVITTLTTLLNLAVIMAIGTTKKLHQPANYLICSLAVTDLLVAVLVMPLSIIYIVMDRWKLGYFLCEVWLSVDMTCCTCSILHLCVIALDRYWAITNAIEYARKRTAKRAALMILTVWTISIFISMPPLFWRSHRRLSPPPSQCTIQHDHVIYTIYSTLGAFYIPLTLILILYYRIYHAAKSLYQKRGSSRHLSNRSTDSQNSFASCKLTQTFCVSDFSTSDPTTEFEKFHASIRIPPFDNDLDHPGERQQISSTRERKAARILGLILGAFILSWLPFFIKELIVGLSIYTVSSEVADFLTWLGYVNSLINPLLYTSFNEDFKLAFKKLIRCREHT

With `CCOC(=O)c1sc(NC(=O)c2sc(C)nc2C)nc1C` as the compound, how does the IC50 [1] read?
Its IC50 is > 39.8 µM (not active).

For `COc1ccc(Sc2ccc(NC(=O)c3cccc(Cl)c3)cc2C#N)cc1`, which EC50 [2] is on record?
The EC50 was 8.99 µM (active).

What about the EC50 [3] of the same compound?
The EC50 was > 500 µM (not active).

Which IC50 [4] does the source give for `O=C(CSc1nnc(-c2cccnc2)n1Cc1ccco1)N1c2ccccc2Sc2ccccc21` here?
Its IC50 is > 50 µM (not active).

What about the IC50 [5] of the same compound?
Its IC50 is > 50 µM (not active).

Which IC50 [6] does the source give for `Cc1cc(O)c(C(=O)/C=C/c2c(F)c(F)c(F)c(F)c2F)c(=O)o1` here?
Its IC50 is 8.85 µM (active).

For `Cc1cc(C(=O)CSc2nnnn2C2CC2)c(C)n1Cc1ccccc1`, which EC50 [7] is on record?
The EC50 was > 30 µM (not active).

What does the source list for `CS(=O)(=O)N1CCN(c2ccc(NC(=O)c3ccc([N+](=O)[O-])o3)cc2)CC1`?
CC50 [8]: 4.95 µM (active); AC50 [9]: 49.3 µM (active); AC50 [10]: 5.65 µM (active); AC50 [11]: 64.6 µM (active); AC50 [12]: 4.92 µM (active); AC50 [13]: 7.78 µM (active)
